*1 amine or outer side, *2 acyl side, *3 side chain or, on linkers, in order; H or OH if unused. Where a SMILES comes first, the peptide text is derived from it. [ ]: non-standard residue; d: D form. The star is where a group is joined. Exatecan = CC[C@@]1(O)C(=O)OCc2c1cc1n(c2=O)Cc2c-1nc1cc(F)c(C)c3c1c2[C@@H](N*)CC3; Hexanoyl(6-maleimido) = O=C1C=CC(=O)N1CCCCCC(=O)*; NHCH2OCH2CO = O=C(COCN[*:1])[*:2]
Key:
[1] = tested on: HER2-overexpressing human breast cancer cell line SUM190PT; assay type: in vivo
Protocol: The study is performed in human breast cancer cell line SUM190PT grown as subcutaneous xenografts in NMRI-Foxn1^nu mice. Day 1 was the first day, day 21 the last day of treatment and final day of analysis.
Cells are obtained and cultured as described in Example 8 (see paragraph 8.1.2).
Capecitabine can be purchased from Roche Pharma AG. Capecitabine is suspended with 0.5% Natrosol and administered intragastrally with a volume of 10 ml/kg.
Tumor volumes and side effects are monitored as described in Example 1 (see paragraph 1.1.6), except that control animals are sacrificed when the median tumor volume of the group reaches a size of approximately 540 mm^3.
(§1) The statistical evaluation of the tumor volume and the body weight is conducted on day 21 (last day of the study). Apart from this, statistical analysis was performed as described in Example 1 (see paragraph 1.1.7), with no evaluation of tumor growth after stop of treatment.

[2] = tested on: T-DXd-resistant NCI-N87 cells; assay: Proliferation assay (CellTiter Glo), T-DXd resistant NCI-N87 cells; assay type: cell-based, human; conditions: 5 days of incubation, in vitro
Protocol: (§2) Per well, 1000 cells are seeded in 40 μL medium in white, sterile 384-well culture plates (TC-treated; PerkinElmer #6007680) and incubated overnight in a humidified incubator at 37° C. and 5% CO2. 0.1% DMSO-control or serial compound dilution in triplicates are added. […] After 5 days of incubation with test compounds, the cells plates are measured upon addition of CellTiter Glo Luminescent Cell Viability Reagent (Promega, #G9243) to assess cell viability. The plates are placed on a shaker for five minutes and additionally incubated for 10 minutes at room temperature to induce cell lysis and to stabilize the luminescent signal. The luminescent signal of each well is measured in an EnSpire Multilabel Plate Reader 658 (PerkinElmer). The dose response curves are fit and visualized using Boehringer Ingelheim's proprietary software MegaLab and PRISM (GraphPad Inc.).

[3] = tested on: parental NCI-N87 cells; assay: Proliferation assay (CellTiter Glo), parental NCI-N87 cells; assay type: cell-based, human; conditions: 5 days of incubation, in vitro
Protocol: as §2

[4] = tested on: HER2-overexpressing human NSCLC cell line Calu-3; assay: Calu-3 subcutaneous xenograft, zongertinib with trastuzumab and/or pertuzumab; assay type: in vivo, CB-17/Icr-Prkdc^scid mice; conditions: day 42, zongertinib 20 mg/kg qdx42 p.o., trastuzumab 20 mg/kg q7dx6 i.p., pertuzumab 20 mg/kg q7dx6 i.p., alone or combined
Protocol: The study is performed in human NSCLC cell line Calu-3 grown as subcutaneous xenografts in CB-17/Icr-Prkdc^scid mice. Day 1 was the first day, day 42 the last day of treatment and final day of analysis.
Calu-3 is a HER2-overexpressing human NSCLC cell line that can be obtained from ATCC (lot 614492062). Cells are cultured in T75, T175 and 5-Layer tissue culture flasks at 37° C. and 5% CO2. The medium used is EMEM (Lonza BE12-662F) supplemented with 10% FCS (Cytiva HyClone Characterized FBS, SH30084.03n), 2 mM Glutamax (Gibco 35050-038), 0.5 mM sodium pyruvate (Sigma S8636). Cultures are split once weekly with a ratio of 1:1.5-1:2.
To establish subcutaneous tumors, Calu-3 cells are harvested by centrifugation, washed and resuspended in PBS+5% FCS at 7×10^7 cells/ml. 50 μl cell suspension containing 3.5×10^6 cells is injected subcutaneously into the right flank of mice (1 site per mouse).
Mice in the control group are treated with vehicle, i.e.: • (i) 0.5% Natrosol, administered once daily for the duration of the treatment intragastrally by gavage needle with a volume of 10 ml/kg body weight; and • (ii) saline (0.9%), administered once every week intraperitoneally with a volume of 10 ml/kg.
Tumor volumes and side effects are monitored as described in Example 1 (see paragraph 1.1.6).
as §1

Compound: CCCCCOC(=O)Nc1nc(=O)n([C@@H]2O[C@H](C)[C@@H](O)[C@H]2O)cc1F [Capecitabine, capecitabine, reference compound]
- Regressions >30% ([1]; day 21, tumors regressed/total (partial response), zongertinib 10 mg/kg qdx21 p.o., capecitabine 400 mg/kg qdx21 p.o., trastuzumab 20 mg/kg q7dx3 i.p., alone or combined): 0/8
- TGI ([1]; day 21, zongertinib 10 mg/kg qdx21 p.o., capecitabine 400 mg/kg qdx21 p.o., trastuzumab 20 mg/kg q7dx3 i.p., alone or combined): 106%
- effect on tumor growth (median tumor volumes over time) ([1]; zongertinib 10 mg/kg qdx21, capecitabine 400 mg/kg qdx21, trastuzumab 20 mg/kg q7dx3, alone or triple combination): delayed tumor growth but did not shrink tumors

Compound: CC[C@@]1(O)C(=O)OCc2c1cc1n(c2=O)Cc2c-1nc1cc(F)c(C)c3c1c2[C@@H](NC(=O)COCNC(=O)CNC(=O)[C@H](Cc1ccccc1)NC(=O)CNC(=O)CNC(=O)CCCCCN1C(=O)C=CC1=O)CC3 [deruxtecan, reference compound] ({Hexanoyl(6-maleimido)}-GGFG[NHCH2OCH2CO]-Exatecan)
- sensitivity (dose response, cell viability) [2]: resistant
- sensitivity (dose response, cell viability) [3]: sensitive

Compound: pertuzumab [reference compound]
- Regressions >30% ([4]; tumors regressed/total (partial response)): 0/10
- TGI [4]: 89%
